Experimental data reported in US20080214611A1, “Pharmaceutical Compositions - 659” (AstraZeneca AB, priority 2007, published 2008).

Legend:
[1] = in vivo rat study: plasma concentration after oral administration of amorphous versus wet-milled crystalline dispersions; conditions: 100 mmol/kg, maximum plasma concentration ratio of amorphous dispersion (Example 1 or 2) to wet-milled crystalline dispersion
Experimental: (§1) The dispersions prepared according to Example 1 and Example 2 were tested in in vivo rat study together with dispersions comprising crystalline particles (prepared by wet milling) of compound A and B, respectively. The dispersions were orally administered at 100 mmol/kg.
(§2) The open circles illustrate the results obtained upon administration of the dispersions comprising crystalline particles.

[2] = rat, in vivo, po
Experimental: as §1, §2

SMILES	c^maxamorph/c^maxcrystal [1]	AUCamorph/AUCcrystal [2]
O=C(NC1CCCCC1)c1nn(-c2ccc(Cl)cc2Cl)c(-c2ccc(OS(=O)(=O)CCC(F)(F)F)cc2)c1CO [Compound B, 1-propanesulfonic acid, 3,3,3-trifluoro-, 4-[3-[(cyclohexylamino)carbonyl]-1-(2,4-dichlorophenyl)-4-(hydroxymethyl)-1H-pyrazol-5-yl]phenyl ester]	10	–
O=C(NC1CCCCC1O)c1nn(-c2ccc(Cl)cc2Cl)c(-c2ccc(OS(=O)(=O)CCC(F)(F)F)cc2)c1CO (centres unmarked) [Compound A, 1-propanesulfonic acid, 3,3,3-trifluoro-, 4-[1-(2,4-dichlorophenyl)-3-[[(2-hydroxycyclohexyl)amino]carbonyl]-4-(hydroxymethyl)-1H-pyrazol-5-yl]phenyl ester]	–	4.8
